Results published in the CheMixHub viscosity set.
± gives the uncertainty stated by the source.

Assay: xn = mol fraction of the nth substance listed

Work on `CCCCC(CC)C(=O)OCC(COC(=O)C(CC)CCCC)(COC(=O)C(CC)CCCC)COC(=O)C(CC)CCCC` (stereo not drawn) + CCCCC(=O)OCC(COC(=O)CCCC)(COC(=O)CCCC)COC(=O)CCCC yielded a viscosity (313.15 K, 100 kPa, x1 = 0.6911) of 32.3 ± 2.1 mPa·s.

With `C1CCCC1` + CC(C)CO the viscosity (298.15 K, 101 kPa, x1 = 0.0603) was 2.848 ± 0.13 mPa·s, the viscosity (298.15 K, 101 kPa, x1 = 0.1025) was 2.58 ± 0.12 mPa·s and the viscosity (298.15 K, 101 kPa, x1 = 0.1812) was 2.236 ± 0.1 mPa·s. It also gave a viscosity (298.15 K, 101 kPa, x1 = 0.2538) of 1.84 ± 0.086 mPa·s, a viscosity (298.15 K, 101 kPa, x1 = 0.3617) of 1.355 ± 0.065 mPa·s and a viscosity (298.15 K, 101 kPa, x1 = 0.4947) of 0.9586 ± 0.048 mPa·s. For the same molecule, the viscosity (298.15 K, 101 kPa, x1 = 0.5816) was 0.8054 ± 0.041 mPa·s, the viscosity (298.15 K, 101 kPa, x1 = 0.6617) was 0.6549 ± 0.035 mPa·s and the viscosity (298.15 K, 101 kPa, x1 = 0.7863) was 0.5622 ± 0.031 mPa·s. The viscosity (298.15 K, 101 kPa, x1 = 0.8809) was 0.4552 ± 0.026 mPa·s, the viscosity (298.15 K, 101 kPa, x1 = 0.9205) was 0.4381 ± 0.025 mPa·s and the viscosity (298.15 K, 101 kPa, x1 = 0.9474) was 0.4233 ± 0.025 mPa·s. For the same molecule, the viscosity (308.15 K, 101 kPa, x1 = 0.0603) was 1.934 ± 0.091 mPa·s, the viscosity (308.15 K, 101 kPa, x1 = 0.1025) was 1.68 ± 0.08 mPa·s and the viscosity (308.15 K, 101 kPa, x1 = 0.1812) was 1.478 ± 0.072 mPa·s. For the same molecule, the viscosity (308.15 K, 101 kPa, x1 = 0.2538) was 1.237 ± 0.061 mPa·s, the viscosity (308.15 K, 101 kPa, x1 = 0.3617) was 0.9824 ± 0.049 mPa·s and the viscosity (308.15 K, 101 kPa, x1 = 0.4947) was 0.7014 ± 0.037 mPa·s. For the same molecule, the viscosity (308.15 K, 101 kPa, x1 = 0.5816) was 0.6185 ± 0.033 mPa·s, the viscosity (308.15 K, 101 kPa, x1 = 0.6617) was 0.5283 ± 0.029 mPa·s and the viscosity (308.15 K, 101 kPa, x1 = 0.7863) was 0.4429 ± 0.025 mPa·s. The viscosity (308.15 K, 101 kPa, x1 = 0.8809) was 0.3863 ± 0.023 mPa·s, the viscosity (308.15 K, 101 kPa, x1 = 0.9205) was 0.3695 ± 0.023 mPa·s and the viscosity (308.15 K, 101 kPa, x1 = 0.9474) was 0.3609 ± 0.022 mPa·s.

With `C1CCCC1` + CCC(C)=O the viscosity (293.15 K, 101.33 kPa, x1 = 0.0472) was 0.397 ± 0.008 mPa·s, the viscosity (293.15 K, 101.33 kPa, x1 = 0.0981) was 0.395 ± 0.008 mPa·s and the viscosity (293.15 K, 101.33 kPa, x1 = 0.1929) was 0.394 ± 0.008 mPa·s. The viscosity (293.15 K, 101.33 kPa, x1 = 0.2932) was 0.39 ± 0.008 mPa·s, the viscosity (293.15 K, 101.33 kPa, x1 = 0.3753) was 0.39 ± 0.008 mPa·s and the viscosity (293.15 K, 101.33 kPa, x1 = 0.4966) was 0.393 ± 0.008 mPa·s. For the same molecule, the viscosity (293.15 K, 101.33 kPa, x1 = 0.6189) was 0.394 ± 0.008 mPa·s, the viscosity (293.15 K, 101.33 kPa, x1 = 0.6838) was 0.398 ± 0.008 mPa·s and the viscosity (293.15 K, 101.33 kPa, x1 = 0.8034) was 0.407 ± 0.008 mPa·s. It also gave a viscosity (293.15 K, 101.33 kPa, x1 = 0.9061) of 0.419 ± 0.008 mPa·s, a viscosity (293.15 K, 101.33 kPa, x1 = 0.9499) of 0.426 ± 0.008 mPa·s and a viscosity (298.15 K, 101.33 kPa, x1 = 0.0472) of 0.377 ± 0.007 mPa·s. It also gave a viscosity (298.15 K, 101.33 kPa, x1 = 0.0981) of 0.375 ± 0.007 mPa·s, a viscosity (298.15 K, 101.33 kPa, x1 = 0.1929) of 0.372 ± 0.007 mPa·s and a viscosity (298.15 K, 101.33 kPa, x1 = 0.2932) of 0.37 ± 0.007 mPa·s. For the same molecule, the viscosity (298.15 K, 101.33 kPa, x1 = 0.3753) was 0.37 ± 0.007 mPa·s, the viscosity (298.15 K, 101.33 kPa, x1 = 0.4966) was 0.373 ± 0.007 mPa·s and the viscosity (298.15 K, 101.33 kPa, x1 = 0.6189) was 0.374 ± 0.007 mPa·s. For the same molecule, the viscosity (298.15 K, 101.33 kPa, x1 = 0.6838) was 0.377 ± 0.007 mPa·s, the viscosity (298.15 K, 101.33 kPa, x1 = 0.8034) was 0.387 ± 0.008 mPa·s and the viscosity (298.15 K, 101.33 kPa, x1 = 0.9061) was 0.397 ± 0.008 mPa·s. For the same molecule, the viscosity (298.15 K, 101.33 kPa, x1 = 0.9499) was 0.405 ± 0.008 mPa·s, the viscosity (303.15 K, 101.33 kPa, x1 = 0.0472) was 0.358 ± 0.007 mPa·s and the viscosity (303.15 K, 101.33 kPa, x1 = 0.0981) was 0.358 ± 0.007 mPa·s. For the same molecule, the viscosity (303.15 K, 101.33 kPa, x1 = 0.1929) was 0.354 ± 0.007 mPa·s, the viscosity (303.15 K, 101.33 kPa, x1 = 0.2932) was 0.353 ± 0.007 mPa·s and the viscosity (303.15 K, 101.33 kPa, x1 = 0.3753) was 0.352 ± 0.007 mPa·s. The viscosity (303.15 K, 101.33 kPa, x1 = 0.4966) was 0.354 ± 0.007 mPa·s, the viscosity (303.15 K, 101.33 kPa, x1 = 0.6189) was 0.355 ± 0.007 mPa·s and the viscosity (303.15 K, 101.33 kPa, x1 = 0.6838) was 0.359 ± 0.007 mPa·s. For the same molecule, the viscosity (303.15 K, 101.33 kPa, x1 = 0.8034) was 0.367 ± 0.007 mPa·s, the viscosity (303.15 K, 101.33 kPa, x1 = 0.9061) was 0.377 ± 0.008 mPa·s and the viscosity (303.15 K, 101.33 kPa, x1 = 0.9499) was 0.383 ± 0.008 mPa·s.
